Test results from a melting point compilation (Tetko et al.).

melting point [°C]	Compound
183 to 185	O=C1CC2C(CC(OC(=O)c3ccccc3)C2COC(c2ccccc2)(c2ccccc2)c2ccccc2)O1 (single isomer, unassigned; (-))
175	Cc1cc(Cl)ccc1NC(=S)N(C)C
26.5	Ic1cccc(-c2ccccc2)c1
229	O=C(Oc1c(-c2ccccc2)[nH]c2cc([N+](=O)[O-])ccc12)c1ccccc1
210 to 211	Nc1ccc(Cl)nn1
218	O=[N+]([O-])c1ccc(-c2nnc3n2NCS3)cc1
92 to 95	CCN(CC)c1ccc(C=NN(c2ccccc2)c2ccccc2)cc1
95 to 96	FC(F)(F)c1cccc(-c2noc(-c3cc(-c4ccccc4)c(C(F)(F)F)s3)n2)c1
212 to 215	Nc1c(Br)cc(Br)c(Cl)c1C(=O)O
137	CC(NC(=O)C(C(F)(F)F)C(F)(F)F)c1ccccc1 (centres undefined)
135 to 138	CCOC(=O)c1c(NC(=S)NCc2ccccc2)sc2c1CCN(Cc1ccccc1)C2
107 to 109	CC(CCC(=O)O)C1CCC2C3CCC4CC(=O)CCC4(C)C3CC(O)C12C (centres undefined)
242 to 243	C/C(=N\c1cccc(C(=O)O)c1)c1c(O)c2ccccc2n(-c2ccccc2)c1=O
106 to 107	O=Cc1ccccc1N1CCN(c2ccc(C(F)(F)F)cn2)CC1
287	O=C1C(c2cccc(C3=[N+]([O-])c4cc([N+](=O)[O-])ccc4C3=O)c2)=[N+]([O-])c2cc([N+](=O)[O-])ccc21
204 to 206	CC(=O)NC(Cc1c[nH]c2ccccc12)C(=O)O (racemic)
82	CCOC(=O)c1c(-c2ccc(C)c(C)c2)csc1N
87 to 88	Cc1oc(-c2ccccc2)nc1C=O
85.5	CCCC(C)C(=O)Nc1ccc(C)c(Cl)c1 (centres undefined)
169	CC(Oc1ccc(Cl)cc1Cl)C(=O)Nc1ccc2nc(SCc3ccccc3)sc2c1 (centres undefined)
133 to 138	CS(=O)(=O)c1ccccc1S(=O)(=O)Cl
39	N#Cc1ccc(C(F)(F)F)nc1
126 to 128	COC(=O)c1ccc(OC)c(S(=O)(=O)Cl)c1

melting point [°C]	Compound
41 to 43	Nc1c(F)cc(Cl)cc1Br
157 to 158	O=C(Cl)c1cc2cc([N+](=O)[O-])ccc2s1
192 to 194	CN1CCc2c(sc(N)c2C#N)C1
173	Cc1cccc(O)c1C(=O)O
139 to 141	CCOc1cc([N+](=O)[O-])c(OCC)cc1N1CCOCC1
79.8	Oc1cccc2sccc12
184	O=C1OC(c2ccc([N+](=O)[O-])cc2)Cc2ccccc21 (centres undefined)
41	CCCCCCCCCCCCCCCCOC(=O)C(C)O (centres undefined)
88 to 94	OCc1cccc(Cl)c1Cl
173	CCOc1ccc(C(=O)OCCN(CC)CC)cc1
214 to 215	COC(=O)c1ccc2c(C=O)cn(C(=O)OC(C)(C)C)c2c1
105 to 108	O=C(CCl)Nc1ccc(Cl)cc1Cl
218	Nc1cc2nc3c(cc2cc1C=O)CCCC3
198	CCOC(=O)c1sc2sc(C(=O)OCC)c(N=C3SCCS3)c2c1N=C1SCCS1
97	O[C@@H]1CCCC/C=C\c2ccccc21
272	C(=C/c1ccco1)/c1ccc2cc3ccc(/C=C/c4ccco4)nc3cc2n1
230	C=C1C(=O)C23C4CC5C(C)(C)CCC(OC(C)=O)C5(C(OC(C)=O)O4)C2C(OC(C)=O)CC1C3OC(C)=O (centres undefined)
-32	CCCCCCCCC=CCCCCCCCC(=O)OCC(COC(=O)CCCCCCCC=CCCCCCCCC)OC(=O)CCCCCCCC=CCCCCCCCC (centres undefined)
181 to 183	O=C(COc1ncn(-c2ccc(Cl)cc2)n1)NNC(=S)Nc1ccc(F)cc1
192 to 193	O=C(O)c1cc(-c2ccc(Cl)cc2)oc1C(F)(F)F
93	N#CC1(c2ccc(F)cc2)CCC(=O)CC1
57 to 61	CCOC(=O)c1ccc(Cl)c([N+](=O)[O-])c1
140 to 144	NC(=S)c1ccc2c(c1)OCCO2

melting point [°C]	Compound
239 to 241	O=C1c2ccccc2C(=O)N1c1n[nH]c2ccccc12
205	CC(C)(C)OC(=O)N[C@@H](CCCCN)C(=O)O
32	COc1ccc(OC(C)=O)cc1
90	CC(C)CC(N)C(=O)Nc1ccc([N+](=O)[O-])cc1 (centres undefined)
-10.8	CCCCCOC(=O)CCC(=O)OCCCCC
139 to 140	Cn1nc(-c2cccs2)cc1N
160	CCOc1ccc(NC(=O)CC(C)O)cc1 (centres undefined)
161	COc1cc(C)nc(N)n1
0.5	C1CCCSCC1
160	O=[N+]([O-])c1ccc(Sc2ccc([N+](=O)[O-])cc2)cc1
147 to 151	CC(C)(C)OC(=O)CC(NC(=O)OCC1c2ccccc2-c2ccccc21)C(=O)O (centres undefined)
46	CCCCCCc1ccc(C(=O)Oc2ccc(C#N)cc2)cc1
24.5	CCCCCCCCCCCC(=O)Oc1ccccc1
50 to 51	OC1CCSCC1
170	N#C/C(=C/c1cccs1)c1nc(-c2ccc(Cl)cc2)cs1
123 to 124	N#Cc1ccc(-c2ccc(C(F)(F)F)cn2)cc1
166 to 168	O=C(O)C1(O)CC(O)C(O)C(O)C1 (centres undefined)
228	O=[N+]([O-])c1ccc(C=Cc2cccc3ccccc23)c([N+](=O)[O-])c1
108	Cc1cc(N=Nc2ccccc2)c(C(C)C)cc1N=Nc1ccccc1
46	COc1cc(O)cc(OC)c1
23	OCc1ccc(F)cc1
84	CCOC(=O)c1sc(-c2cccc(N)c2)nc1C
176 to 180	CSc1nnc(N)s1

melting point [°C]	Compound
160 to 162	NS(=O)(=O)c1cc([N+](=O)[O-])c(Cl)s1
158	CC12CCC(=O)C=C1CCC1C3CCC4(CCC(=O)O4)C3CCC12C (centres undefined)
180	CC1CC=C/C1=N\Nc1ccc([N+](=O)[O-])cc1[N+](=O)[O-] (centres undefined)
222	CC(C)CC1Nc2cc(Cl)c(S(N)(=O)=O)cc2S(=O)(=O)N1 (centres undefined)
55 to 58	O=C(Cl)c1ccc2nonc2c1
196 to 198	Nc1nnc(SCC(=O)Nc2ccc3c(c2)OCO3)s1
240	Cc1ccc2nc(O)cc(C)c2c1
188	Cc1cccc(NC(=O)C(C(F)(F)F)(C(F)(F)F)C(F)(F)F)c1
127	COc1ccc(NC(=O)C(C)=O)cc1
110 to 112	CCCCOc1ccc(NC(C)=O)cc1
126	N#Cc1ccc(Br)cn1
55.8	CC1CC(O)CC(C)(C)C1 (centres undefined)
203 to 205	Nc1nc(SCc2ccc([N+](=O)[O-])cc2)c2ncn(C3OC(CO)C(O)C3O)c2n1 (centres undefined)
110	O=C(CCc1ccc(O)cc1)c1c(O)cc(O)cc1OC1OC(CO)C(O)C(O)C1O (centres undefined)
146	Cc1ccc(C(=O)c2ccccc2C(=O)O)cc1
90 to 93	CC(C)C(C(=O)O)C(=O)O
120	CCCC=C1C(=O)C2(C)CCC1C2(C)C (centres undefined)
65	CC(=O)n1cc(C)c2ccccc21
159 to 160	O=C(O)C1CC(=O)N(Cc2ccco2)C1 (centres undefined)
144	Nc1ccc(Sc2ccc([N+](=O)[O-])cc2)cc1
127 to 129	NC(=S)N1CCCCC1
160	O=C(c1ccccc1)c1ccc2n1CCC2C(=O)O (centres undefined)
281	CCC1(c2ccccc2)C(=O)NCNC1=O

melting point [°C]	Compound
216	Cn1c(=O)cc(NN)c2ccccc21
53 to 57	CCOC(=O)c1c(Cl)cc(C)nc1Cl
189	CCOC(=O)C1=C(C)NC(=O)NC1c1ccc2c(c1)OCO2 (centres undefined)
-50	CCOC(=O)CC(=O)OCC
116 to 118	O=S(=O)(c1ccc(Cl)cc1)n1cccc1
-88	C=CC#CC=C
145	O=[N+]([O-])c1cc([N+](=O)[O-])c(C=C(Cl)c2ccccc2)cc1C=C(Cl)c1ccccc1
76	COc1cc(C=O)ccc1OC(C)=O
79	CCOc1ccccc1NC(C)=O
45.5	CCN(CC)c1ccc(Cl)cc1
155	O=C(CCCN1CCC(O)(c2ccc(Br)cc2)CC1)c1ccc(F)cc1
-20	CC(C)COC(=O)CCCCC(=O)OCC(C)C
86	CCC(C(N)=O)c1ccccc1 (centres undefined)
54	CCCCCCCCCCCCCCCC(C)O (centres undefined)
133 to 135	O=C(CCc1ccc(O)cc1)ON1C(=O)CCC1=O
196 to 201	Cc1cc(=O)[nH]cc1Br
123 to 124	CCOC(=O)C(C#N)=Cc1ccc(-c2ccccc2Br)o1
-84.5	CCCC(=O)OC
109	CCOC(=O)C1C(c2ccc(OC)cc2)C(C(=O)OCC)C(O)(C(F)(F)F)NC1(O)C(F)(F)F (centres undefined)
184 to 186	Nc1ccc2c(c1)CCC2=O
62 to 66	OCC[C@@H](O)c1ccccc1
69	CC(=O)C=NO
227	C=C1CC23CC1(O)CCC2C12C=CC(O)C(C)(C(=O)O1)C2C3C(=O)O (centres undefined)

Compound	melting point [°C]
Clc1cc2oc3cc(Cl)c(Cl)c(Cl)c3c2cc1Cl	225
CCCCC1CO1 (centres undefined)	94
O=C(Cl)c1ccsc1	50 to 54
CC(C)C1CCC(Cc2ccc(Cl)cc2)C1(O)Cn1cncn1 (centres undefined)	89
CC(C)C(=O)Cl	-90
Cc1cc(Cl)cc(Cl)c1Cl	45.5
COc1ccc(C2=CCC3(C)C(CCC4C5CCC(O)C5(C)CCC43)C2)cc1 (centres undefined)	163 to 169
COP1(=S)OCc2ccccc2O1 (centres undefined)	55
CCOP(=S)(NC(C)C)Oc1ccccc1C(=O)OC(C)C (centres undefined)	-12
